Peptide text beside a SMILES is read from it. * marks the point of attachment. Cbz = O=C(OCc1ccccc1)*; CH2F = FC*
Key:
caspase-7 = target: T1, caspase-7 (Homo sapiens, UniProt P55210); experiment: competitive binding assay against caspase-7 (PROMEGA-GLO 2); conditions: read-out: K value (caspase-7)
T1 sequence (P55210 24-198 limits assumed): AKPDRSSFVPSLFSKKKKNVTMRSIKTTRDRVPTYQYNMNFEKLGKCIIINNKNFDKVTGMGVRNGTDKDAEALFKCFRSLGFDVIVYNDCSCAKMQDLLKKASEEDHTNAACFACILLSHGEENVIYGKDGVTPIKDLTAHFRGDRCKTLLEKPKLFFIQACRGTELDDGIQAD
T1 sequence (P55210 207-303 limits assumed): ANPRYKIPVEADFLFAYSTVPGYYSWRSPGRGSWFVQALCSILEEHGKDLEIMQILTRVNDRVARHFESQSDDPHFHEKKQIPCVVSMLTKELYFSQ

[1] = system: recombinant caspases -1, -2, -3, -6, -7, -8, -9, or -10; experiment: Caspase cleavage assay of tau proteins (immunoblot with Tau-13); type: biochemical; conditions: 50 μM inhibitor, 37° C., 2 hours, tau from three sources
Method: FIG. 5. Caspase-2 cleaves tau in vitro, producing a 35 kDa fragment. Recombinant caspases -1, -2, -3, -6, -7, -8, -9, or -10 were incubated at 37° C. for 2 hours with tau proteins derived from three different sources. […] Caspases-1 and -8 may cleave tau proteins near the N-terminus and remove Tau-13 mAb epitopes, preventing detection of proteolytic products. Arrows denote the 35 kDa fragment, and arrowheads denote the tau fragment truncated at D421.
Tau proteins (200 ng immunoprecipitates from rTg[tauP301L]4510 or rTg[tauWT]21221 brain lysates, or 1 μl synthetic proteins generated with TNT T7 Quick Coupled Transcription/Translation System [Promega Corp., Madison, Wis.]) were diluted in assay buffer (20 mM HEPES pH 7.2, 10 mM DTT, 1 mM EDTA, 0.1% CHAPS) to a final volume of 50 μl. One unit of recombinant caspase was added to the reactions in the presence or absence of 50 μM z-VAD-fmk (Calbiochem, EMD Biochemicals, San Diego, Calif.). The reactions were incubated at 37° C. for […] and stopped by adding Laemmli sample buffer (62.5 mM Tris-HCl [pH 6.8], 25% glycerol, 2% SDS, and 0.01% bromophenol blue).

recombinant caspase-2 = target: T2, recombinant caspase-2 (Homo sapiens, UniProt P42575); experiment: Screening assay: caspase-2-mediated cleavage of Asp314 peptide substrate (LabChip); type: biochemical; conditions: substrate coincubated with recombinant caspase-2 and inhibitor, fluorescence by LabChip
T2 construct: made in house
T2 sequence (P42575 170-325 limits assumed): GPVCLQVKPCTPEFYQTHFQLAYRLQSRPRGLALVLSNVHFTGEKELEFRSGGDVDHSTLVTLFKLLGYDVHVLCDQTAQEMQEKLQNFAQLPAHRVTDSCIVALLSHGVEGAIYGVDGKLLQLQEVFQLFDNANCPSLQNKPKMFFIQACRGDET
T2 sequence (P42575 348-452 limits assumed): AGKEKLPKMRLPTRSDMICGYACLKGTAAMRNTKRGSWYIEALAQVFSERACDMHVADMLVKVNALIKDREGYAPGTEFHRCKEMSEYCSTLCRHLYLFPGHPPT
Method: FIG. 10. Caspase-2-mediated cleavage of Asp314 peptide substrate. Synthetic peptide substrate FITC-AHX-GSVQIVYKPVDLSKVTS-COOH (SEQ ID NO:4) was designed based on amino acids 304-320 of tau protein that encompasses Asp314 cleavage site. The peptide substrate was cleaved by coincubating with recombinant caspase-2 and was separated from cleavage product by using LabChip drug discovery system. The fluorescence emitted by FITC group was monitored to measure peptide quantity.
FIG. 11. Caspase inhibitor blocks caspase-2-mediated cleavage of Asp314 peptide substrate. Synthetic peptide substrate was coincubated with recombinant caspase-2 in the presence of general caspase inhibitor z-VAD-fmk. The fluorescence of the substrate peptide was measured by using LabChip drug discovery system.
Unless otherwise stated, chemicals were purchased from Sigma-Aldrich (St. Louis, Mo.). Caspase-2 was made in-house; reference Caspase-2 inhibitor Z-VAD-FMK was purchased from BD Pharmingen (San Diego, Calif.). […]
Plates were screened in a LabChip 3000 (Caliper Life Sciences Inc., Hopkinton, Mass.) with temperature and relative humidity set to 20° C. and 50%. A 12-sipper chip sampled contents from each well and measured the fluorescent intensity of the substrate and product peaks. […] Data were analyzed using Caliper's HTS Well Analyzer software.

rat hippocampal neurons = experiment: GFP-tau-containing dendritic spines in neurons coexpressing DsRed and GFP-tau; type: cell-based; conditions: rising concentration of caspase-2 inhibitor
Method: FIG. 15. Images of rat hippocampal neurons coexpressing Dsred and GFP-tagged wild-type tau or tau P301 L mutant. Neurons were treated with caspase-2 inhibitor Ac-VDVAD-CHO (SEQ ID NO:36) or caspase-3 inhibitor Ac-DEVD-CHO (SEQ ID NO:37) for 1 day.
FIG. 16. Quantification of total spines and GFP-tau-containing spines in neurons coexpressing DsRed and GFP-tau.
Based on methods described in Hoover et al., Neuron 2010, dissociated rat hippocampal primary neuron cultures were prepared. Briefly, a 25 mm glass coverslip (thickness, 0.08 mm) was glued over a 22 mm hole in the bottom of a 35 mm tissue culture dish using silicone sealant. Dissociated neuronal cultures from rat hippocampi at P1 were prepared. Neurons were plated onto prepared 35 mm tissue culture dishes at a density of 1×10^6 cells per dish. The age of cultured neurons was counted from the day of plating (1 DIV). Neurons at 7 DIV were transfected using a standard calcium phosphate precipitation method and allowed to grow to maturity (>3 weeks) to be imaged. Neurons were transfected with equivalent concentrations of constructs encoding various tau proteins. The plasmid encoding DsRed was cotransfected with tau constructs to visualize dendritic spines. Recombinant tau protein or TCP35 protein (10 μM) was directly added to culture medium 1 hour before imaging to stimulate neuronal cultures. […]

rTg4510 neurons = experiment: Excitatory synaptic transmission (mEPSCs) in rTg4510 neurons; type: cell-based, mouse; conditions: 20 μM for two hours
Method: FIG. 17. Excitatory Synaptic Transmission in rTg4510 neurons treated with caspase-2 inhibitor. (A) Mean mEPSC amplitudes of rTg4510 neurons (−/− and +/+) treated with 20 μM caspase-2 inhibitor (Ac-VDVAD-CHO; SEQ ID NO:36) for two hours. […] Caspase-2 inhibitor had no effect on rTg4510 (−/−) neurons. (B) Mean mEPSC frequency of rTg4510 neurons (−/− and +/+) treated with 20 μM caspase-2 inhibitor for two hours. Caspase-2 inhibitor had no effect on rTg4510 neurons (−/− or +/+) frequencies.
Miniature excitatory postsynaptic […] (mEPSCs) were recorded at −55 mV in artificial cerebrospinal fluid (aCSF) containing 100 LM AP7 (NMDAR antagonist, Tocris Bioscience, UK), 1 μM TTX (sodium channel blocker, Tocris Bioscience, UK) and 50 μM bicuculline (GABA receptor antagonist, Sigma-Aldrich, St. Louis, Mo.). Electrophysiology experiments were conducted using AXON DIGIDATA 1440A data acquisition system (Molecular Devices, LLC, Sunnyvale, Calif.), AXOPATCH 200B amplifier (Molecular Devices, LLC, Sunnyvale, Calif.), pCLAMP10 software (Molecular Devices. LLC, Sunnyvale, Calif.). Data was analyzed using AxoGraph X software (Berkeley, Calif.).

Q: How did the Ki (caspase-7) turn out when CC(=O)N[C@@H](Cc1ccc(O)cc1)C(=O)N[C@@H](CCCCN)C(=O)N1CCC[C@H]1C(=O)N[C@H](C(=O)N[C@H](C=O)CC(=O)O)C(C)C [SEQ ID NO:1, Ac-YKPVD-CHO] (Ac-YKPVD-aldehyde) was run?
A: > 100 µM

Q: Which results are given for “benzyloxycarbonyl-Val-Ala-Asp-fluoromcthylketone (Cbz-Val-Ala-Asp-CH2F) [z-VAD-fmk]”?
A: cleavage of tau proteins by recombinant caspases [1]: blocked all cleavage; caspase-2-mediated cleavage of Asp314 peptide substrate (recombinant caspase-2): blocks

Q: What does the source list for Ac-VDVAD-CHO (Ac-VDVAD-aldehyde)?
A: number of spines with tau (rat hippocampal neurons): decreases; mean mEPSC amplitude, rTg4510 (−/−) neurons (rTg4510 neurons): no effect; mean mEPSC frequency, rTg4510 neurons (−/− or +/+) (rTg4510 neurons): no effect; mean amplitude of AMPA mEPSCs, rTg4510 (+/+) neurons (rTg4510 neurons; compared to vehicle): significantly increased

From patent publication US9605042B2, “Compositions and methods related to tauopathy” (REGENTS OF THE UNIVERSITY OF MINNESOTA, priority 2012, dated 2017)
